pIC50: −log10 of the molar value. Where two headings read alike, the source gives them in different places.
Key:
[1] = T-CALM: plasma concentrations by 5-in-1 LC/MS/MS; assay type: in vivo, human; conditions: for Plasma concentration, mean: trough
Method: Additionally, at Visit 4, a post-dose sample will be collected as close to 4 hours post-dose as possible, but within the window of 4-6 hours post-dose (i.e., a total of two PK samples are collected at Visit 4.)
Assay performances were satisfactory and met acceptance criteria for system performance suitability, quantitation range, calibration linearity, assay accuracy and precision, and assay recovery.

WAG/Rij rats = assay: WAG/Rij rat model of absence epilepsy; assay type: in vivo; conditions: 10 mg/kg oral
From the text: Other T-type antagonists from structurally diverse series have shown similar efficacy in this model (Broicher, 2007; Blumenfeld, 2008; Broicher, 2008; Shipe, 2008; Yang, 2008; Uebele, 2009; Russo, 2010; Russo, 2011).
Data were scored with automated seizure analysis software, averaged, and normalized to enable treatment comparisons (FIG. 76)
Control animals received vehicle administrations. […] Source: Merck TTA Package Description (FIG. 79).

[2] = Single-dose toxicokinetic study in dogs; assay type: in vivo; conditions: dog, plasma, po, 800 mg/kg
[3] = In vitro plasma protein binding, rat; assay type: in vitro ADME
From the text: (§1) CX-8998 distributes readily to the brain in rats and to brain and cerebral spinal fluid (CSF) in dogs.

[4] = In vitro plasma protein binding, dog; assay type: in vitro ADME
From the text: as §1

[5] = Brain penetration in male rats; assay type: in vivo; conditions: rat, 25 mg/kg
CYP2C9 = biological target: T1, CYP2C9 (Homo sapiens, UniProt P11712); assay: In vitro metabolism (liver microsomes, hepatocytes, recombinant CYPs, anti-CYP antibodies); assay type: in vitro ADME; conditions: recombinant CYP2C9
T1 construct: host or cells: pooled liver microsomes, hepatocytes and recombinant CYP enzymes
From the text: (§2) Glucuronide conjugates of the oxygenated metabolites are detected in human, monkey, and dog hepatocyte preparations. […] However, the abundance of CYP3A5, CYP2C19, and CYP2D6 in human liver microsomes is low (2%-5%) relative to the primary contributors, CYP3A4 (˜30%) and CYP2C9 (˜20%). […] Information on reproductive and developmental toxicology was obtained in a 28-day pivotal female fertility study in rats and in preliminary embryo-fetal development studies in rats and rabbits.

[6] = test system: T2, CYP1A2, CYP3A4, CYP2C8, CYP2C9, CYP2C19, CYP2D6; assay: CYP inhibition in human liver microsomes; assay type: in vitro ADME; conditions: human liver microsomes
T2 construct: IC50, CYP1A2, CYP3A4, CYP2C8, CYP2C9, CYP2C19, CYP2D6; other: human liver microsomes

CYP2B6 = CYP2B6 mRNA induction in human hepatocytes; assay type: in vitro ADME
From the text: as §2

in vivo [7] = conditions: female, rat, po, 10 mg/kg/day
in vivo [8] = conditions: Beagle, dog, po, 300 mg/kg
[9] = 90-day oral toxicology in Beagle dogs; conditions: Beagle, dog, in vivo, po
[10] = Phase 1 multiple-dose pharmacokinetics (PN002/Part II); conditions: for half-life / AUC / Cmax: human, plasma
[11] = M01, Day 7, CX-8998 2 mg once daily
[12] = M01, Day 7, CX-8998 18 mg once daily

T1 sequence (P11712 whole entry): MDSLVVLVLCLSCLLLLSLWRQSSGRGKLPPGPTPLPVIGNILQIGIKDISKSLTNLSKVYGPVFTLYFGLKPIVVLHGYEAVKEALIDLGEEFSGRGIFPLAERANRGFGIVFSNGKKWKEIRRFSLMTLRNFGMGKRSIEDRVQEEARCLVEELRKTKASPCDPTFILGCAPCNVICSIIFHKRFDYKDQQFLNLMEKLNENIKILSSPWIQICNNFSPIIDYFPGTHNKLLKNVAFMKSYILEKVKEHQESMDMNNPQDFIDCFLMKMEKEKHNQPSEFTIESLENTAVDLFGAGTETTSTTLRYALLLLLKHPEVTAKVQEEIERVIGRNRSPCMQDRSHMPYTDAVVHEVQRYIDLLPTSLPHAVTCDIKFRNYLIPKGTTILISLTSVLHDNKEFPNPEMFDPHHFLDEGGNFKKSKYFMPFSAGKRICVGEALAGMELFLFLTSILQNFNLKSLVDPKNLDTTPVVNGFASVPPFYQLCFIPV

## C=C(C)c1ccc(CC(=O)N[C@H](C)c2ccc(OCC(F)(F)F)cn2)cc1 [M01]
[1]; Visit 2 (Day 8), 4 mg BID
  Plasma concentration, mean: 398 nM
[1]; Visit 3 (Day 15), 8 mg BID
  Plasma concentration, mean: 812 nM
[1]; Visit 4 (Day 28), 10 mg BID
  Plasma concentration, mean: 1023 nM
[1]; human, plasma, oral, Visit 4 (Day 28), 10 mg BID, 4 hours post-dose
  concentration at 4 h: 976 nM
WAG/Rij rats
  Percent of inhibition: 71%
[2]; female
  Tmax: 8 h
[2]; male
  Tmax: 8 h
[3]; rat plasma, read-out: In vitro plasma protein binding (converted)
  fraction unbound: 0.004
[3]; rats, read-out: free fraction
  fraction unbound: 0.004
[4]; dog plasma, read-out: In vitro plasma protein binding (converted)
  fraction unbound: 0.003
[4]; dogs, read-out: free fraction
  fraction unbound: 0.003
[4]; read-out: Free fraction in dog plasma
  fraction unbound: 0.003
[5]; brain and plasma, oral, read-out: Brain-to-plasma ratio
  Kp at 2 h: 0.27
[5]; brain, po, read-out: Brain: Plasma Ratio
  Kp at 2 h: 0.27
CYP2C9
  KM for CYP2C9 reactions (formation): ~3 µM
[6]
  pIC50: < 4.70
CYP2B6
  CYP2B6 induction: mild to moderate inducers
In vivo [7]
  AUC: 8.11 µM·h
  Cmax: 2660 nM
In vivo [8]; female, CSF
  Kp at 24 h: 0.112
  concentration at 24 h: 112 nM
In vivo [8]; female, brain (frontal cortex)
  Kp at 24 h: 0.696
  concentration at 24 h: 696 nM
In vivo [8]; female, brain (thalamus)
  Kp at 24 h: 0.772
  concentration at 24 h: 772 nM
In vivo [8]; male, CSF
  Kp at 24 h: 0.149
  concentration at 24 h: 149 nM
In vivo [8]; male, brain (frontal cortex)
  Kp at 24 h: 0.19
  concentration at 24 h: 190 nM
In vivo [8]; male, brain (thalamus)
  Kp at 24 h: 0.208
  concentration at 24 h: 208 nM
[9]; female, 10 mg/kg
  AUC: 38.6 µM·h
[9]; female, 30 mg/kg
  AUC: 103 µM·h
[9]; female, 100 mg/kg/day
  AUC: 431 µM·h
[9]; male, 10 mg/kg
  AUC: 54.9 µM·h
[9]; male, 30 mg/kg
  AUC: 121 µM·h
[9]; male, 100 mg/kg/day
  AUC: 1770 µM·h
[10]; [11]
  AUC Ratio, metabolite to parent: 1.12
  Cmax Ratio, metabolite to parent: 0.36
[10]; M01, Day 7, CX-8998 4 mg once daily
  Cmax Ratio, metabolite to parent: 0.36
[10]; M01, Day 7, CX-8998 12 mg once daily
  AUC Ratio, metabolite to parent: 1.15
[10]; [12]
  AUC Ratio, metabolite to parent: 1.34
  Cmax Ratio, metabolite to parent: 0.57
[10]; based on potency, free fraction, maximum Cmax ratios
  Relative potency (CX-8998 = 1.00): 0.27
[10]; 2 mg
  half-life: 1550 min
[10]; 2 mg, AUC24, M01, Day 7, CX-8998 2 mg once daily
  AUC: 1.52 µM·h
[10]; 2 mg, M01, Day 7, CX-8998 2 mg once daily
  Cmax: 76 nM
[10]; 4 mg, AUC24, M01, Day 7, CX-8998 4 mg once daily
  AUC: 2.83 µM·h
[10]; 4 mg, M01, Day 7, CX-8998 4 mg once daily
  Cmax: 136 nM
[10]; 12 mg
  half-life: 1360 min
[10]; 18 mg
  half-life: 1140 min
[10]; 18 mg, AUC24, M01, Day 7, CX-8998 18 mg once daily
  AUC: 18.3 µM·h
[10]; 18 mg, M01, Day 7, CX-8998 18 mg once daily
  Cmax: 865 nM
[10]; male, oral
  half-life: 1140 to 1550 min
